# Patent publication US4312883A, “Furocoumarin for the photochemotherapy of psoriasis and related skin diseases” (Consiglio Nazionale delle Ricerche, priority 1979, dated 1982)
# Tested on: DNA synthesis in Ehrlich ascites tumor cells
# Experiment: Inhibition of DNA synthesis (and DNA and RNA synthesis) on irradiation at 365 nm
# Assay type: cell-based
# Conditions: relative (ang = 100)
# Source text: (§1) Photobiological activity: A significant test for assessing photobiological activity of alkylangelicins is the study of their capacity to inhibit DNA and RNA synthesis in Ehrlich ascites tumor cells. In Table III the capacity of inhibition is expressed as ID50, that is the irradiation does, in terms of quanta at 365 nm, necessary to inhibit in these cells the 50% of the DNA and RNA synthesis in the presence of a constant amount of alkylangelicin. […] Moreover, in general it can be observed that in this simple biological system a close correlation exists between photobiological activity and the capacity to induce photochemical lesions in DNA, that is photoreactivity.
row,Molecule,"inhibition of DNA synthesis, relative"
1,Cc1cc(=O)oc2c1ccc1occc12 [4-methylangelicin],104

# Tested on: not given
# Experiment: not given
# Conditions: Table I; cited from earlier work
row,Molecule,Mutagenicity
1,"COc1c2ccoc2cc2oc(=O)ccc12 [5-MOP, 5-methoxypsoralen]","known, strong"
2,"Cc1cc2cc3c(C)cc(=O)oc3c(C)c2o1 [TMP, 4,5',8-trimethylpsoralen]","known, strong"

# Tested on: not given
# Experiment: not given
# Conditions: oral; cited from earlier work
row,Molecule,Carcinogenicity (oral)
1,"COc1c2ccoc2cc2oc(=O)ccc12 [5-MOP, 5-methoxypsoralen]",weak
2,"Cc1cc2cc3c(C)cc(=O)oc3c(C)c2o1 [TMP, 4,5',8-trimethylpsoralen]",weak

# Same assay, conditions: topical; cited from earlier work
row,Molecule,Carcinogenicity (topical)
1,"COc1c2ccoc2cc2oc(=O)ccc12 [5-MOP, 5-methoxypsoralen]",strong
2,"Cc1cc2cc3c(C)cc(=O)oc3c(C)c2o1 [TMP, 4,5',8-trimethylpsoralen]",strong

# Tested on: RNA synthesis in Ehrlich ascites tumor cells
# Experiment: Inhibition of RNA synthesis on irradiation at 365 nm
# Assay type: cell-based
# Conditions: relative (ang = 100)
# Source text: as §1
row,Molecule,"inhibition of RNA synthesis, relative"
1,Cc1cc(=O)oc2c1ccc1occc12 [4-methylangelicin],129

# Tested on: epidermal DNA synthesis
# Experiment: Inhibition of epidermal DNA synthesis in the mouse in vivo after topical application and UV-A irradiation
# Conditions: light or radiation study, 0.01% methanol solutions, UV-A 9 J/cm^2, read-out: Percent inhibition ± standard error of epidermal DNA synthesis
# Description: DNA samples were dissolved in water and their specific radioactivity determined.
# Each drug substance was studied using at least six mice.
row,Molecule,inhibition in vivo at 0.01 % [%]
1,"Cc1cc(=O)oc2c1c(C)cc1occc12 [4,5-dimethylangelicin]",36 ± 1.1
2,Cc1cc(=O)oc2c1ccc1occc12 [4-methylangelicin],68.5 ± 19.5
3,"CC(=O)OCc1c(C)oc2ccc3c(C)cc(=O)oc3c12 [4'-acetoxymethyl-4,5'-dimethylangelicin, 4,5'-dimethyl-4'-acetoxymethylangelicin]",10.6 ± 4.5

# Tested on: melamin pigmentation
# Experiment: not given
# Conditions: Table I; cited from earlier work
row,Molecule,Stimulation of melamin pigmentation
1,"COc1c2ccoc2cc2oc(=O)ccc12 [5-MOP, 5-methoxypsoralen]","strong, well known"
2,"Cc1cc2cc3c(C)cc(=O)oc3c(C)c2o1 [TMP, 4,5',8-trimethylpsoralen]","strong, well known"

# Tested on: DNA
# Experiment: Dark complex formation (intercalation) with DNA in the ground state, binding parameters
# Parameters: K (association constants) of the complexes with DNA: unit not given here
# Conditions: in vitro, ground state, McGhee and Von Hippel method
# Source text: Dark complex formation: It is known from F. Dall'Acqua, et al. Chem.-Biol. Interactions 21,103 (1978) that the intercalated complex formed by furocoumarins with DNA strongly affects the successive photoaddition increasing the rate of photobinding. […] These parameters have been determined according to the method of McChee and Von Hippel, J.Mol.Biol, 86, 469 (1974).
# (a) Determined according to Mc Ghee and Von Hippel, J. Mol. Biol.,
row,K (association constants) of the complexes with DNA,Molecule
1,1400,Cc1cc(=O)oc2c1ccc1occc12 [4-methylangelicin]

# Same assay, conditions: in vitro, ground state; molecules bound per nucleotide
row,1/n (frequency of binding sites),Molecule
1,0.076,Cc1cc(=O)oc2c1ccc1occc12 [4-methylangelicin]

# Same assay, conditions: on introduction of a cationic moiety in addition to the two methyl groups
row,increase of K (affinity towards DNA),Molecule
1,more than 20 times,"4'-aminomethoxymethyl-4,5'-dimethylangelicin"

# Same assay, conditions: relative (ang = 100)
"1/n (frequency of binding sites), relative","K (association constants), relative",Molecule
120,250,Cc1cc(=O)oc2c1ccc1occc12 [4-methylangelicin]

# Tested on: psoriasis
# Experiment: Topical photochemotherapy of psoriasis in patients
# Assay type: in vivo, human
# Conditions: topical 0.1% w/v + UV-A; Excellent = 90% clearance
# Source text: Clinical data: The effectiveness of certain representative alkylangelicins according to the present invention, specifically 5-methylangelicin, 4,5'-dimethylangelicin, 4'-hydroxymethyl-4,5'-dimethylangelicin, 4'-hydroxymethyl-4,5'-dimethylangelicin and 4,5-dimethylangelicin, has been tested by measuring their capacity to resolve psoriasis in various patients. For a direct comparison the efficacy of the parent unsubstituted angelicin and that of three very effective linear furocoumarins, that is 8-methoxypsoralen (8-MOP), 5-methoxypsoralen (5-MOP), and 4,5',8-trimethylpsoralen (TMP) were also tested.
# In each treatment four areas of the affected skin were used;
# (a) In the first area an alcohol lotion, containing 10% glycerine, of the tested compound (0.1% w/v) was applied until a concentration of […] was reached then left to evaporate by the heat of the body. After half an hour the area was irradiated with high intensity UV-A emitting low pressure mercury fluorescent lamps with a wavelength of 320-400 nm. The irradiation doses were selected in the range of 4.5-13 J/cm^2 for each application as a function of the sensitivity of the skin of the patients; when the skin sensitivity was higher, the light doses were lower and vice versa.
# (b) A second area was treated with an alcohol solution of the drug as in (a) but it was covered and maintained in the dark.
# (c) A third area, where the drug was not applied, was irradiated as in (a) but in general with higher UV-A doses.
# (d) A fourth area was not treated at all, neither with the drug, not with UV-A.
# The treatment with the alkylangenlicins referred to above was repeated 5 time a week for two or more weeks; the total number of treatments was between 8 and 20 per subject. In some cases, as for instance with 5-methylangelicin, a good clearing of psoriasis was observed after 8 treatments.
# In order to avoid induction of photosensitization processes such as redness and erythema in the reference tests made with the linear furocoumarins 8-MOP, 5-MOP, TMP, lower light doses were used than in the case of alkylangelicins, the treatments were repeated at a frequency of no more than three times a week.
row,Molecule,No. of patients with Excellent result [patients]
1,"COc1c2ccoc2cc2oc(=O)ccc12 [5-MOP, 5-methoxypsoralen]",0
2,"Cc1cc(=O)oc2c1c(C)cc1occc12 [4,5-dimethylangelicin]",0
3,"Cc1cc2cc3c(C)cc(=O)oc3c(C)c2o1 [TMP, 4,5',8-trimethylpsoralen]",2

# Same assay, conditions: topical 0.1% w/v + UV-A; Fair = 50-70%
row,Molecule,No. of patients with Fair result [patients]
1,"COc1c2ccoc2cc2oc(=O)ccc12 [5-MOP, 5-methoxypsoralen]",1
2,"Cc1cc(=O)oc2c1c(C)cc1occc12 [4,5-dimethylangelicin]",0
3,"Cc1cc2cc3c(C)cc(=O)oc3c(C)c2o1 [TMP, 4,5',8-trimethylpsoralen]",2

# Same assay, conditions: topical 0.1% w/v + UV-A; Good = 70-90%
row,Molecule,No. of patients with Good result [patients]
1,"COc1c2ccoc2cc2oc(=O)ccc12 [5-MOP, 5-methoxypsoralen]",4
2,"Cc1cc(=O)oc2c1c(C)cc1occc12 [4,5-dimethylangelicin]",0
3,"Cc1cc2cc3c(C)cc(=O)oc3c(C)c2o1 [TMP, 4,5',8-trimethylpsoralen]",2

# Same assay, conditions: topical 0.1% w/v + UV-A; Poor 40%
row,Molecule,No. of patients with Poor result [patients]
1,"COc1c2ccoc2cc2oc(=O)ccc12 [5-MOP, 5-methoxypsoralen]",4
2,"Cc1cc(=O)oc2c1c(C)cc1occc12 [4,5-dimethylangelicin]",2
3,"Cc1cc2cc3c(C)cc(=O)oc3c(C)c2o1 [TMP, 4,5',8-trimethylpsoralen]",2

# Same assay, conditions: topical + UV-A
row,Molecule,efficacy in psoriasis patients (in words)
1,"Cc1cc(=O)oc2c1c(C)cc1occc12 [4,5-dimethylangelicin]",equal to angelicin

# Tested on: skin
# Experiment: Relative skin phototoxicity
# Conditions: (psr = 100)
row,Molecule,Relative skin phototoxicity
1,Cc1cc(=O)oc2c1ccc1occc12 [4-methylangelicin],0

# Tested on: DNA
# Experiment: not given
# Conditions: Table I; cited from earlier work
Molecule,DNA intercalation property,Interstrand cross-linking induction in DNA,Monoadduct forming property
"COc1c2ccoc2cc2oc(=O)ccc12 [5-MOP, 5-methoxypsoralen]",strong,"strong, well known","known, strong"
"Cc1cc2cc3c(C)cc(=O)oc3c(C)c2o1 [TMP, 4,5',8-trimethylpsoralen]",strong,"strong, well known","known, strong"

# Same assay, conditions: known furocoumarins; cited from earlier work
row,Molecule,Photobinding capacity to DNA
1,"COc1c2ccoc2cc2oc(=O)ccc12 [5-MOP, 5-methoxypsoralen]","known, strong"
2,"Cc1cc2cc3c(C)cc(=O)oc3c(C)c2o1 [TMP, 4,5',8-trimethylpsoralen]","known, strong"

# Tested on: epidermal DNA synthesis
# Experiment: Inhibition of the synthesis of epidermal DNA of the mouse in vivo after oral administration and UV-A irradiation
# Conditions: oral 0.25 g/Kg, UV-A 9 J/cm^2 after two hours
# Source text: Considering that the topical skin tests carried out on mice to evaluate the effectiveness of these substances has yielded data which correlate well with the clinical data, such a test conveniently modified has been adopted to evaluate the effectiveness of the alkylangelicins after oral administration followed by UV-A irradiation.
# In this connection experiments have been conducted using mice 20±2 g in weight, that were starved for three hours before oral administration of the alkylangelicins. Groups of 5 mice were fed a suspension of 0.5% methylcellulose in water containing the alkylangelicins of the invention at a dosage of 0.25 g/Kg. The animals were kept in the dark for two hours, that is for the time necessary for absorption, systemic distribution and localization of the drug at the level of the skin. The animals were then irradiated with UV-A light, 9 J/cm^2. Later the animals were sacrificed and the inhibition of the epidermal DNA synthesis was tested; the results obtained are reported in Table VI. The skin on the back, protected from light by a dark paper, was assumed as a control. As a reference 8-MOP, used under the same experimental conditions, was also tested. The significant activity of the alkylangelicins according to the present invention, higher than that of 8-MOP, in inhibiting the epidermal DNA synthesis in mice upon oral administration allows one to consider these compounds as also being effective for oral administration to humans for photochemotherapy of psoriasis and of other skin diseases that are characterized by cellular hyperproliferation.
row,Molecule,Percent inhibition ± standard error of epidermal DNA synthesis [%]
1,"Cc1cc(=O)oc2c1c(C)cc1occc12 [4,5-dimethylangelicin]",55.0 ± 6.0
2,"CC(=O)OCc1c(C)oc2ccc3c(C)cc(=O)oc3c12 [4'-acetoxymethyl-4,5'-dimethylangelicin, 4,5'-dimethyl-4'-acetoxymethylangelicin]",64.8 ± 13.9

# Tested on: DNA synthesis
# Experiment: not given
# Conditions: Table I; cited from earlier work
row,Molecule,DNA synthesis inhibiting property
1,"COc1c2ccoc2cc2oc(=O)ccc12 [5-MOP, 5-methoxypsoralen]","known, strong"
2,"Cc1cc2cc3c(C)cc(=O)oc3c(C)c2o1 [TMP, 4,5',8-trimethylpsoralen]","known, strong"

# Tested on: not given
# Experiment: not given
# Conditions: known furocoumarins, Table I; cited from earlier work
row,Molecule,Photosensitizing activity
1,"COc1c2ccoc2cc2oc(=O)ccc12 [5-MOP, 5-methoxypsoralen]","known, strong"
2,"Cc1cc2cc3c(C)cc(=O)oc3c(C)c2o1 [TMP, 4,5',8-trimethylpsoralen]","known, strong"

# Tested on: DNA
# Experiment: Capacity to form inter-strand cross-linkages in DNA
# Assay type: biochemical
# Conditions: (psr = 100)
# Description: All these compounds were not suitable to photoinduce in DNA inter-strand cross-linkages. […] These tests were carried out according to the method of F. Bordin et al., Photochem. Photobiol., 29,1063 (1979).
row,Molecule,capacity to form interstrand cross-linkages
1,Cc1cc(=O)oc2c1ccc1occc12 [4-methylangelicin],0

# Tested on: DNA
# Experiment: Photobinding to DNA, rate constants of the photoreactions
# Assay type: biochemical
# Conditions: in vitro, UV-A irradiated
# Source text: (b) Determined according to F. Dall'Acqua, S. Marciani, F. Zambon and G.
# Rodighiero, Photochem. Photobiol., 29,489(1979).
# Photobinding capacity to DNA: The introduction of one or two methyl groups in the molecule of angelicin leads to a strong increase of the photobinding to DNA; see Table II. […] Photobiol., 29, 489 (1979).
row,Rate constants of the photoreactions with DNA [K × 10^-2 × min^-1],Molecule
1,1.61,Cc1cc(=O)oc2c1ccc1occc12 [4-methylangelicin]

# Same assay, conditions: relative (ang = 100)
row,"Rate constants of the photoreactions with DNA, relative",Molecule
1,146,Cc1cc(=O)oc2c1ccc1occc12 [4-methylangelicin]
